Data reported in ChEMBL document CHEMBL1201862, “PubChem BioAssay data set” (2004).
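Dose response: 5 concentrations. Exposure: 48 h. Format: 96-well plates. Endpoint: linear interpolation; highest concentration if not reached. GI50: concentration for 50% inhibition of growth.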 The source made the active and inactive calls. No stated cut-off is given here; in the data, active = GI50 up to about 1.1 µM and inactive = higher.

Legend:
Test in all cases: NCI anticancer screen, dose series, 48 h
M19-MEL = test system: M19-MEL
DLD-1 = test system: DLD-1
SNB-78 = test system: SNB-78
RXF 631 = test system: RXF 631
LXFL 529 = test system: LXFL 529
KM-20L2 = test system: KM-20L2
HOP-18 = test system: HOP-18
DMS-114 = test system: DMS-114
XF498 = test system: XF498

Row | SMILES | GI50 (M19-MEL) | GI50 (DLD-1) | GI50 (SNB-78) | GI50 (RXF 631) | GI50 (LXFL 529) | GI50 (KM-20L2) | GI50 (HOP-18) | GI50 (DMS-114) | GI50 (XF498)
1 | Cc1ccc(S(=O)(=O)NC2(C=O)CCCC3CCCCC32)cc1 (stereo not given) | > 100 µM (inactive) | > 100 µM (inactive) | > 100 µM (inactive) | > 100 µM (inactive) | > 100 µM (inactive) | > 100 µM (inactive) | > 100 µM (inactive) | > 100 µM (inactive) | –
2 | CC1=C(C(=O)Nc2cccc(C(F)(F)F)c2)C(c2ccc(O)cc2)C(C(=O)Nc2cccc(C(F)(F)F)c2)=C(C)N1 | 16.4 µM (inactive) | 20.5 µM (inactive) | 23 µM (inactive) | 14.8 µM (inactive) | 18.6 µM (inactive) | 18.3 µM (inactive) | – | 14.8 µM (inactive) | 2.61 µM (inactive)
3 | CCOc1ccc2c(c1)[n+]([O-])c(-c1nc3ccccc3s1)c(N)[n+]2[O-] | > 100 µM (inactive) | 76.4 µM (inactive) | > 100 µM (inactive) | – | 37.4 µM (inactive) | > 100 µM (inactive) | 15.4 µM (inactive) | 44.1 µM (inactive) | 25.8 µM (inactive)
4 | CCC(CC)NC1=C(NC(C)=O)C(=O)c2ccccc2C1=O | > 50 µM (inactive) | > 50 µM (inactive) | > 50 µM (inactive) | – | > 50 µM (inactive) | > 50 µM (inactive) | – | – | > 50 µM (inactive)
5 | NC(CCCC(N)P(=O)(O)c1ccccc1)P(=O)(O)c1ccccc1 (stereo not given) | > 261 µM (inactive) | > 261 µM (inactive) | > 261 µM (inactive) | – | > 261 µM (inactive) | > 261 µM (inactive) | > 261 µM (inactive) | > 261 µM (inactive) | > 261 µM (inactive)
6 | Oc1nc(CC(O)c2ccc(Cl)c(Cl)c2)cc(-c2ccccc2)n1 (stereo not given) | 44.3 µM (inactive) | > 100 µM (inactive) | – | – | > 100 µM (inactive) | 60 µM (inactive) | > 100 µM (inactive) | 38.9 µM (inactive) | –
7 | CCOC(=O)/C(=C/c1ccc(N(C)C)cc1)N(CC)CC | 24.6 µM (inactive) | – | 69.3 µM (inactive) | – | 34.6 µM (inactive) | > 100 µM (inactive) | – | 54 µM (inactive) | > 100 µM (inactive)
8 | CCN1CCC(O)(/C=C/c2ccccc2)C(C(=O)/C=C/c2ccccc2)C1 (stereo not given) | 1.99 µM (inactive) | 2.08 µM (inactive) | 3.33 µM (inactive) | 4.1 µM (inactive) | 1.87 µM (inactive) | 2.62 µM (inactive) | 5.64 µM (inactive) | 2.08 µM (inactive) | 5.65 µM (inactive)
9 | Cc1cccc(NC(=O)C(=O)C2C(=O)NC(=O)NC2=O)c1C | > 100 µM (inactive) | > 100 µM (inactive) | > 100 µM (inactive) | – | > 100 µM (inactive) | > 100 µM (inactive) | > 100 µM (inactive) | > 100 µM (inactive) | –
10 | COC(=O)c1ccc2n[se]nc2c1 | > 100 µM (inactive) | > 100 µM (inactive) | > 100 µM (inactive) | > 100 µM (inactive) | > 100 µM (inactive) | > 100 µM (inactive) | > 100 µM (inactive) | > 100 µM (inactive) | > 100 µM (inactive)
11 | Cc1ccc(C2[C@H]3C(=O)N(c4ccc(Cc5ccc(N6C(=O)[C@@H]7ON(c8ccccc8)C(c8ccc(C)cc8)[C@@H]7C6=O)cc5)cc4)C(=O)[C@H]3ON2c2ccccc2)cc1 (stereo not given in full) | > 100 µM (inactive) | > 100 µM (inactive) | – | – | > 100 µM (inactive) | > 100 µM (inactive) | > 100 µM (inactive) | > 100 µM (inactive) | > 100 µM (inactive)
12 | O=C1NC(=O)C(C(=O)C(=O)Nc2cc(Cl)ccc2Cl)C(=O)N1 | > 100 µM (inactive) | > 100 µM (inactive) | > 100 µM (inactive) | > 100 µM (inactive) | > 100 µM (inactive) | > 100 µM (inactive) | – | > 100 µM (inactive) | –
13 | COC(=O)C1=C(C)N(NC(=O)Nc2ccccc2)C2(N)N(NC(=O)Nc3ccccc3)C(C)=C(C(=O)OC)C12C(=O)OC (stereo not given) | 25.1 µM (inactive) | 55.7 µM (inactive) | 26.1 µM (inactive) | – | 62.5 µM (inactive) | > 100 µM (inactive) | 81.8 µM (inactive) | 77.1 µM (inactive) | –
14 | O=C(Nc1ccccc1SC(/C=C/NNC1=NN=C(c2ccccc2)C(c2ccccc2)N1)c1ccccc1)c1ccc(Cl)cc1Cl (stereo not given) | 44.3 µM (inactive) | 49.2 µM (inactive) | 87.5 µM (inactive) | – | – | > 100 µM (inactive) | – | 45.1 µM (inactive) | > 10 µM (inactive)
15 | COc1ccc(NC(=O)CC(=O)N/N=C/c2ccc(N(CCC#N)S(C)(=O)=O)cc2)cc1 | > 100 µM (inactive) | > 100 µM (inactive) | > 100 µM (inactive) | > 100 µM (inactive) | > 100 µM (inactive) | > 100 µM (inactive) | > 100 µM (inactive) | > 100 µM (inactive) | –
16 | c1cc2c(ncc3cscc32)s1 | > 100 µM (inactive) | > 100 µM (inactive) | > 100 µM (inactive) | > 100 µM (inactive) | > 100 µM (inactive) | – | – | > 100 µM (inactive) | > 100 µM (inactive)
17 | CC(=O)Nc1ccc(C2C(C(=O)Nc3ccccc3C)=C(C)NC(C)=C2C(=O)Nc2ccccc2C)cc1 | > 100 µM (inactive) | > 100 µM (inactive) | > 100 µM (inactive) | > 100 µM (inactive) | > 100 µM (inactive) | > 100 µM (inactive) | > 100 µM (inactive) | > 100 µM (inactive) | > 100 µM (inactive)
18 | CC(=O)O[C@]12CCCCC1C1(O)C(O)CCCC[C@H]12 (stereo not given in full) | > 100 µM (inactive) | – | > 100 µM (inactive) | – | > 100 µM (inactive) | > 100 µM (inactive) | > 100 µM (inactive) | > 100 µM (inactive) | –
19 | CCOC(=O)CCC(NC(=O)c1ccc(NCc2ccc3nc(-c4ccccc4)c(Cl)nc3c2)cc1)C(=O)OCC (stereo not given) | 17.4 µM (inactive) | 28.6 µM (inactive) | 32.4 µM (inactive) | 13.2 µM (inactive) | 18.2 µM (inactive) | 80.5 µM (inactive) | – | 22.4 µM (inactive) | 1.58 µM (inactive)
20 | NC(=O)C(=O)N/N=C(\CC1(O)C(=O)Nc2ccccc21)c1ccc2ccccc2c1 (stereo not given) | 25.2 µM (inactive) | 37.8 µM (inactive) | 72.9 µM (inactive) | – | 31.5 µM (inactive) | – | 46.3 µM (inactive) | 21.3 µM (inactive) | 30.5 µM (inactive)
21 | O=C(Nc1nc2ncn(CCO)c2c(=O)[nH]1)c1ccccc1 | > 100 µM (inactive) | > 100 µM (inactive) | > 100 µM (inactive) | – | > 100 µM (inactive) | > 100 µM (inactive) | > 100 µM (inactive) | > 100 µM (inactive) | –
22 | CC(=O)OC12C=CC(=O)N1c1ccccc1C(=O)O2 (stereo not given) | > 100 µM (inactive) | > 100 µM (inactive) | 32.1 µM (inactive) | – | > 100 µM (inactive) | > 100 µM (inactive) | > 100 µM (inactive) | – | > 100 µM (inactive)
23 | O=C1c2ccccc2C(=O)N1CCN(CCN1C(=O)c2ccccc2C1=O)Cn1cccn1 | 69.8 µM (inactive) | 31.9 µM (inactive) | > 100 µM (inactive) | 29 µM (inactive) | > 100 µM (inactive) | > 100 µM (inactive) | – | 19.5 µM (inactive) | > 100 µM (inactive)
24 | CCc1c(-c2coc(CC/C(C)=C/c3ccccc3)n2)oc(OC)c(C)c1=O | 31.8 µM (inactive) | 26.8 µM (inactive) | 53.3 µM (inactive) | – | 5.96 µM (inactive) | 28.5 µM (inactive) | > 57.3 µM (inactive) | < 0.01 µM (active) | 17.7 µM (inactive)
25 | NC(=O)c1[nH]nc(C2OC(CO)C(O)C2O)c1O (stereo not given) | 13.2 µM (inactive) | 1.45 µM (inactive) | 37.7 µM (inactive) | – | – | 2.76 µM (inactive) | 43 µM (inactive) | 19.9 µM (inactive) | 71.9 µM (inactive)
26 | C=CC1(C)CCC(C(C)C(=O)C(C=C(C)C)OC(C)=O)C12C(=O)Oc1ccccc1C2=O (stereo not given) | 26.2 µM (inactive) | 54.5 µM (inactive) | 79.4 µM (inactive) | – | 37.8 µM (inactive) | 51.3 µM (inactive) | 95.3 µM (inactive) | 26 µM (inactive) | 54 µM (inactive)
27 | COC(=O)C1[C@@H](C(=O)OC)C12C=Cc1ccccc1C=C2 (stereo not given in full) | > 100 µM (inactive) | > 100 µM (inactive) | > 100 µM (inactive) | – | > 100 µM (inactive) | > 100 µM (inactive) | – | > 100 µM (inactive) | 51.6 µM (inactive)
28 | CC1C=C[C@H](Sc2ccccc2)CC[C@@]1(C)O (stereo not given in full) | > 100 µM (inactive) | > 100 µM (inactive) | > 100 µM (inactive) | – | 99.3 µM (inactive) | > 100 µM (inactive) | – | 55.8 µM (inactive) | –
